Test results from the NIST ThermoML archive (doi:10.1021/je200697m).
Numbers after ± are expanded uncertainties.

Conditions: Liquid

| vapor or sublimation pressure (363.41 K) [kPa] | vapor or sublimation pressure (337.84 K) [kPa] | Structure (SMILES) |
| --- | --- | --- |
| 101.32 ± 1.7 | – | COC(=O)OC [dimethyl carbonate] |
| – | 101.32 ± 1.7 | CO [methanol] |
